“Also recorded” adds a separate entry of the source.

Data on ten compounds can be found in patent US4758555A, “Method for treating convulsions and epilepsy with organic copper compounds” (priority 1986, dated 1988).

The nature of series [1]: Rotating rod neurotoxicity. As to conditions: dose and time given in the source.
The nature of series [2]: Anticonvulsant activity, both or unspecified seizure models. The series is classed as in vivo, male Carworth Farms #1 mice or Sprague-Dawley rats. The following applies: for Anticonvulsant activity (in words): running text.
Series [3] can be described thus: Maximal Electroshock Seizure Test. The class given is in vivo, male Carworth Farms #1 mice or Sprague-Dawley rats. The following applies: for Anticonvulsant activity, Maximal Electroshock: Table VI; for Protection Against Seizure: Table IX, maximal electroshock, intraperitoneal, 65 mg/kg, 5 animals.
The nature of series [4]: Sleep time / hypnosis or sedation. The series is classed as in vivo. The following applies: Table IX, intraperitoneal, 65 mg/kg; for Average Sleep Time: 5 animals.
Method: In Phase I identification of anticonvulsant activity, test compounds were given intraperitoneally (IP) at 30, 100, 300 and, in some cases, 600 milligrams per kilogram (mg/kg) of body weight and protection against Maximal Electroshock and/or Metrazol-induced seizures was determined 30 minutes, 4 hours, or later. […] Subsequently the routine protocol was modified and certain of the test compounds (see Tables, infra) re-evaluated following subcutaneous (SC) injection at periods of up to 8 hours post injection. Subcutaneous administration can be helpful in determining whether or not hypnotic activity can be distinguished from anticonvulsant activity based upon the decreased rate of absorption associated with this route of administration as opposed to the more rapid rate of absorption associated with IP administration.
For series [5] the following is noted: cited from earlier work.
The conditions of series [6]: cited from earlier work; for Anticonvulsant activity reported previously (in words): 50, 100 and 300 mg/kg at 0.75, 1.5 and 3 hours post subcutaneous injection at a site different from Metrazol.
The conditions of series [7]: mouse, in vivo; cited from earlier work.
The conditions of series [8]: known from literature; cited from earlier work.
Series [9] can be described thus: Subcutaneous Pentylenetetrazol (Metrazol) Seizure Threshold Test. The series is classed as in vivo, male Carworth Farms #1 mice or Sprague-Dawley rats. As to conditions: for Anticonvulsant activity, Metrazol: Table VI; for Protection against Metrazol-induced seizures (in words): running text.
Setting [10] is: SC at site different from injection of Metrazol.

As for `CC(=O)CC(C)=NCCN=C(C)CC(C)=O.[Cu]` [Cu(II) Bisacetylacetonethyleneimine], in [1] (listed as bisacetylacetonethyleneimine complex), the “Rotating rod toxicity (in words)” value was “rotating rod toxicity, which may also have been due to hypnotic activity, was found at the higher doses studied”. Moreover, the “Anticonvulsant activity (in words)” value in [2] was “effective in preventing both Maximal Electroshock and Metrazol-induced seizures”.
As to `C1CCc2nnnn2CC1.[Cl-].[Cl-].[Cu+2]` [Cu(II)(Metrazol)Cl2], the “Anticonvulsant activity, Maximal Electroshock” value in series [3] (IP) and in series [3] (setting [10]) was “I” in each case. Moreover, the “Rotating rod toxicity (in words)” value in series [1] was “no rotating rod toxicity at doses up to 600 mg/kg”. The “Anticonvulsant activity (in words)” value in series [2] is on record as “some anticonvulsant activity when injected at a site different from the site of Metrazol injection”.
In the case of `CCC1(CCC(C)C)C(=O)[N-]C(=O)NC1=O.CCC1(CCC(C)C)C(=O)[N-]C(=O)NC1=O.[Cu+2]` [Cu(II)(amobarbital)2], the “Protection Against Seizure” value in series [3] amounted to 100 Percent protected. In addition, the “Potency or effectiveness relative to a comparator (in words)” value in series [2] (in vivo) is “more potent anticonvulsant than sodium (Na) amobarbital”. In series [4], the “Sleep (in words)” value is “All animals slept” and the “Average Sleep Time” value was 16 min.
For `O=C1NC(=O)C(c2ccccc2)(c2ccccc2)N1` [Dilantin, Phenytoin, reference compound], the ED50 in [3] (Mus musculus, Table X, IP, at time of peak activity, read-out: ED50 for inhibition of seizures, MES (Phase II)) came to 7 mg/kg. In addition, in [5], the “Known effect of parent drug on seizures” value was “known to only inhibit Maximal Electroshock-induced seizures but it potentiates Metrazol-induced seizures”. For the same compound, in series [2] (Phase II), the “Time of peak effect” value amounted to 1 h. For the same compound, in series [2] (Table X, IP, challenge time), the “Time of peak activity (Phase II)” value is 1 h.
`C1CCc2nnnn2CC1` [Metrazol, pentylenetetrazol]: the Seizures produced entry in series [6] (85 mg/kg subcutaneous) is listed as “greater than 97 % of mice”. For the same compound, the “CNS stimulation / rotating rod toxicity (known)” value in series [7] is recorded as “potent central nervous system stimulant; also recorded: marked rotating rod toxicity”.
Regarding `CCC1(CCC(C)C)C(=O)NC(=O)NC1=O` [Na amobarbital, sodium (Na) amobarbital, reference compound], the “Protection Against Seizure” value in [3] is 0 Percent protected. Moreover, in series [4], the “Average Sleep Time” value was 0 min.
In the case of `[Cl][Cu][Cl]` [copper chloride], the “Anticonvulsant activity reported previously (in words)” value in series [6] was “no anticonvulsant activity”.
As to `O=C(O)c1ccccc1O` [salicylate], the “Convulsions / CNS toxicity at high doses” value in [8] was “cause convulsions at high doses”.
As for Copper acetate [Cu(II)2 (acetate)4], the “Anticonvulsant activity reported previously (in words)” value in [6] is reported as “no anticonvulsant activity”. Moreover, the “Anticonvulsant activity, Maximal Electroshock” value is “I” in series [3] (IP); “I” in series [3] (SC, same injection site used for injection of Metrazol); “I” in series [3] (intragastric). Also, the results for the “Anticonvulsant activity (in words)” value in series [2] and in series [2] (listed as copper acetate) were “active when injected at the same site as the site of Metrazol injection; also recorded: lack of anticonvulsant activity” and “inactive when administered orally”, respectively. Moreover, the “Anticonvulsant activity, Metrazol” value in series [9] (setting [10]) and in series [9] (intragastric) was “I” each time. Further, in [9] (intraperitoneal (copper acetate: site different from Metrazol)), the “Lowest dose with activity against Metrazol-induced seizures” value amounted to 5 mg/kg. In [9], the “Protection against Metrazol-induced seizures (in words)” value is listed as “effective in inhibiting Metrazol-induced seizures”.
Regarding Cu(II)2 (phenylacetate)4, in series [1], the “Rotating rod toxicity (in words)” value was “Rotating rod toxicity at 300 mg/kg”. Moreover, the “Protection against Metrazol-induced seizures (in words)” value in series [9] is recorded as “effective in protecting against Metrazol-induced seizures”.
